# From patent US10968184B2, “Pyrimidine prodrugs for the treatment of viral infections and further diseases” (Janssen Sciences Ireland Unlimited Company, priority 2016, dated 2021)
# Columns and labels:
# in vitro [1] = conditions: human, plasma
# [2] = tested on: P-glycoprotein (human MDR1); test: in vitro; conditions: dog, MDCK-MDR1
# in vitro [3] = conditions: rat, hepatocytes
# in vitro [4] = conditions: rat, liver microsomes
# in vitro [5] = conditions: rat, plasma
# in vitro [6] = conditions: human, liver microsomes
# in vitro [7] = conditions: simulated gi fluid
# in vitro [8] = conditions: simulated gi fluid; remark: listed apart in the source
# [9] = Pharmacokinetics in rat after oral administration; type: in vivo; conditions: SD rats, aqueous solution, 5 mg/kg eq dose, prodrug in plasma; for AUC(0-t): read-out: AUC(0-last) prodrug
# Experimental: Pharmacokinetics in rat. Prodrugs were administered orally to SD rats using aqueous solution at 5 mg/kg eq dose. Plasma samples were collected at different time points and the concentration of parent and prodrug was analyzed using LC-MS/MS. PK parameters were calculated using Phoenix WinNonlin 6.3. Cmax (ng/mL) and AUC(0-last) (ng·h/mL) were determined for both prodrug and parent.
# in vitro [10] = conditions: human, hepatocytes
SMILES,half-life at 1 μM (in vitro [1]) [h],Papp A→B [2] [×10⁻⁶ cm/s],efflux ratio [2],hepatocyte CLint at 1 μM (in vitro [3]) [µL/min/1e6 cells],microsomal CLint at 1 μM (in vitro [4]) [µL/min/mg],half-life at 1 μM (in vitro [5]) [h],microsomal CLint at 1 μM (in vitro [6]) [µL/min/mg],half-life (in vitro [7]) [h],half-life (in vitro [8]) [h],Cmax [9] [ng/mL],AUC(0-t) [9] [ng·h/mL],hepatocyte CLint at 1 μM (in vitro [10]) [µL/min/1e6 cells],melting point [°C]
CCCC[C@H](CO)Nc1nc(NC)ncc1OC [Compound 6],> 30,6.8,10,120,25,> 30,18,> 6,> 6,129,206,33,
"CCCC[C@H](CO)Nc1nc(N(C)C)ncc1OC [Compound 5, (R)-2-((2-(dimethylamino)-5-methoxypyrimidin-4-yl)amino)hexan-1-ol]",> 30,20,3.2,280,141,> 30,14,> 6,> 6,88,144,80,86.1
"CCCC[C@H](CO)Nc1nc(NC2CCCO2)ncc1OC (stereo partly drawn) [Compound 9, (2R)-2-((5-methoxy-2-((tetrahydrofuran-2-yl)amino)pyrimidin-4-yl)-amino)hexan-1-ol]",< 0.4,,,,27,< 0.4,115,,,,,,
"CCCC[C@H](CO)Nc1nc(NC2CCCCO2)ncc1OC (stereo partly drawn) [Compound 10, (2R)-2-((5-methoxy-2-((tetrahydro-2H-pyran-2-yl)amino)pyrimidin-4-yl)-amino)hexan-1-ol]",1.4,1.8,33,,> 347,1.4,88 to 90,,,,,,
